Assay [1] has as its system Mus musculus. The experiment in a line: Compound was evaluated in vivo against Plasmodium berghei in mice (Mus musculus) after oral administration. The assay is classed as functional.
The test system of assay [2] is Rattus norvegicus. The assay can be described thus: Percent decrease in blood pressure in conscious hypertensive rats, at a dose of 100 mg. Type of assay: functional.

As a reminder, the ED50 is the midpoint of the dose-response relation.

Take `Cl.O[C@H](c1cc(C(F)(F)F)nc2c(C(F)(F)F)cccc12)[C@@H]1CCCN1` (single isomer, unassigned): the ED50 in assay [1] came to 1.8 mg/kg. In addition, in assay [2], the Decrease is reported as 15%. Turning to `Cl.O[C@@H](c1cc(C(F)(F)F)nc2c(C(F)(F)F)cccc12)[C@H]1CCCCN1` [MEFLOQUINE HYDROCHLORIDE], in assay [1], the ED50 is 1.8 mg/kg.

For the origin of these results see ChEMBL document CHEMBL1126331, “Nor-mefloquine: Stereospecific synthesis and biological properties” (1992).
